This series can be described thus: Absorption test: blood concentration after oral administration to rats. The settings on record: rat; for Blood concentration of Compound (I): suspended in 0.7% CMC aqueous solution, group average (5 animals); for Blood Concentration of Compound (II): dissolved in buffer aqueous solution pH 7; for Blood Concentration of Compound (II) / Blood Concentration of Compound (III) / Blood Concentration of Compound (IV) / Blood Concentration of Compound (V) / Blood Concentration of Compound (VI) / Blood Concentration of Compound (VII) / Blood Concentration of Compound (VIII) / Blood Concentration of Compound (IX): group average; for Blood Concentration of Compound (III) / Blood Concentration of Compound (IV) / Blood Concentration of Compound (V) / Blood Concentration of Compound (VI) / Blood Concentration of Compound (VII) / Blood Concentration of Compound (VIII) / Blood Concentration of Compound (IX): suspended in 0.7% CMC. As to the method: The absorption test of the compounds were measured by the following methods.
Male Wistar rats weighing 180-250 g were fed with only water overnight. The next day the rats were orally administered with 50 mg/kg of a test compound which was suspended in a 0.7% CMC aqueous solution. The concentration of the compound in blood of the tested animals (one group consisting of 5 animals) was measured 0.5, 1, 2 and 4 hours after the administration by Bioassay method by using Bacillus subtilis ATCC 6633 strain as an indicator bacteria. In the measurement, an ordinary culture medium was employed, and the preparation of the standard solution and other method were carried out in according to Japanese Antibiotical Pharmaceutical Standards. Further, the concentration of the compound in blood was also measured by high performance liquid chromatography. The blood concentration shown in the examples was an average value of each animal group.
The absorption test of 7-[2-(2-thienyl)-acetoamido]-3-[2-(L-prolyl-L-lysylaminomethyl-1,3,4-thiadiazolyl)-thiomethyl]-3-cephem-4-carboxylic acid formic acid salt was carried out by orally administering the salt which was dissolved in a buffer aqueous solution having the pH of 7. The results are as follows:
The same procedures as described in Example 8 were repeated except that other oligopeptides were employed instead of the α-tert-butyloxycarbonyl-L-prolyl-ε-tert-butyloxycarbonyl-L-lysine. The absorption test of these compounds thus obtained was carried out in the same manner as described in Example 8.

Each structure is given as a SMILES string.

In the case of `CC(C)C[C@H](N)C(=O)N[C@@H](Cc1ccccc1)C(=O)OC(C(=O)NC1C(=O)N2C(C(=O)O)=C(CSc3nnnn3C)CS[C@H]12)c1ccccc1.O=CO` (stereo partly drawn) [Example 1, 7-D-(O-L-leucyl-L-phenylalanyl)-mandelamido-3-(1-methyl-1H-tetrazol-5-yl-thiomethyl)-3-cephem-4-carboxylic acid formic acid salt], the “Blood concentration of Compound (I)” value amounted to 4510 ng/mL (0.5 hr after oral 50 mg/kg), 3700 ng/mL (1 hr after oral 50 mg/kg), 1930 ng/mL (2 hrs after oral 50 mg/kg) and 830 ng/mL (4 hrs after oral 50 mg/kg).
As to `NCCCC[C@H](NC(=O)[C@@H]1CCCN1)C(=O)NCc1nnc(SCC2=C(C(=O)O)N3C(=O)C(NC(=O)Cc4cccs4)C3SC2)s1.O=CO` (stereo partly drawn) [Example 8, 7-[2-(2-thienyl)-acetoamido]-3-[2-(L-prolyl-L-lysylaminomethyl-1,3,4-thiadiazolyl)-thiomethyl]-3-cephem-4-carboxylic acid formic acid salt], the “Blood Concentration of Compound (II)” value is, setting by setting: (0.5 hr after oral 50 mg/kg) 2140 ng/mL; (1 hr after oral 50 mg/kg) 1770 ng/mL; (2 hrs after oral 50 mg/kg) 1040 ng/mL; (4 hrs after oral 50 mg/kg) 70 ng/mL.
As for `Cc1nnc(SCC2=C(C(=O)OCOC(=O)[C@H](CCCCN)NC(=O)[C@@H](N)CC(C)C)N3C(=O)C(NC(=O)Cc4csc(N)n4)C3SC2)s1.Cl` (stereo partly drawn) [Example 15, 7-[2-(2-amino-4-thiazolyl)acetoamido-3-(5-methyl-1,3,4-thiadiazolyl)thiomethyl]-3-cephem-4-carboxylic acid L-leucyl-L-lysyloxymethyl ester hydrochloric acid salt], the “Blood Concentration of Compound (III)” value by setting is: (0.5 hr after oral 50 mg/kg) 1960 ng/mL; (1 hr after oral 50 mg/kg) 2370 ng/mL; (2 hrs after oral 50 mg/kg) 1030 ng/mL; (4 hrs after oral 50 mg/kg) 240 ng/mL.
With `CC(=O)OCC1=C(C(=O)O)N2C(=O)[C@@H](NC(=O)CSCCNC(=O)[C@H](CC(C)C)NC(=O)[C@@H](N)Cc3ccccc3)[C@H]2SC1.O=C(O)C(F)(F)F` [Example 19, 7β-(2-L-phenylalanyl-L-leucylamidoethylthioacetoamido)-3-acetoxymethyl-3-cephem-4-carboxylic acid trifluoroacetic acid salt], the “Blood Concentration of Compound (IV)” value by setting is: (0.5 hr after oral 50 mg/kg) 1070 ng/mL; (1 hr after oral 50 mg/kg) 210 ng/mL; (2 hrs after oral 50 mg/kg) 90 ng/mL; (4 hrs after oral 50 mg/kg) less than 10 ng/mL.
As for `CO/N=C(\C(=O)N[C@@H]1C(=O)N2C(C(=O)O)=C(COC(C)=O)CS[C@H]12)c1csc(NC(=O)[C@H](Cc2ccccc2)NC(=O)[C@@H](N)CC(C)C)n1.O=CO` [Example 22, 7β-[2-(2-L-leucyl-L-phenylalanylamidothiazol-4-yl)-(Z)-2-methoxyiminoacetoamido]cephalosporanic acid formic acid salt], the “Blood Concentration of Compound (V)” value (0.5 hr after oral 50 mg/kg) worked out at 1690 ng/mL, the “Blood Concentration of Compound (V)” value (1 hr after oral 50 mg/kg) came to 1830 ng/mL, the “Blood Concentration of Compound (V)” value (2 hrs after oral 50 mg/kg) was found to be 1530 ng/mL and the “Blood Concentration of Compound (V)” value (4 hrs after oral 50 mg/kg) stood at 1030 ng/mL.
In the case of `CO/N=C(\C(=O)N[C@@H]1C(=O)N2C(C(=O)O)=C(CSc3nnnn3C)CS[C@H]12)c1csc(NC(=O)[C@H](CCCCN)NC(=O)[C@@H](N)CC(C)C)n1.O=CO` [Example 25, 7β-[2-(2-L-leucyl-L-lysylamidothiazol-4-yl)-(Z)-2-methoxyiminoacetoamido]-3-[(1-methyl-1H-tetrazol-5-yl)-thiomethyl]-3-cephem-4-carboxylic acid formic acid salt], the “Blood Concentration of Compound (VI)” value reads like this: (0.5 hr after oral 50 mg/kg) 2110 ng/mL; (1 hr after oral 50 mg/kg) 1670 ng/mL; (2 hrs after oral 50 mg/kg) 1100 ng/mL; (4 hrs after oral 50 mg/kg) less than 100 ng/mL.
On to `CO/N=C(\C(=O)N[C@@H]1C(=O)N2C(C(=O)O)=CCS[C@H]12)c1csc(NC(=O)[C@H](Cc2ccccc2)NC(=O)[C@@H](N)CCSC)n1.O=CO` [Example 27, 7β-[2-(2-L-methionyl-L-phenylalanylamidothiazol-4-yl)-(Z)-2-methoxyiminoacetamido]-3-cephem-4-carboxylic acid formic acid salt], for which the “Blood Concentration of Compound (VII)” value is, setting by setting: (0.5 hr after oral 50 mg/kg) 2130 ng/mL; (1 hr after oral 50 mg/kg) 1840 ng/mL; (2 hrs after oral 50 mg/kg) 1000 ng/mL; (4 hrs after oral 50 mg/kg) 210 ng/mL.
`COC1(NC(=O)CSCC#N)C(=O)N2C(C(=O)OCOC(=O)[C@H](CCCCN)NC(=O)[C@@H](N)CC(C)C)=C(CSc3nnnn3C)CSC21.Cl` (stereo partly drawn) [Example 29, 7β-[(cyanomethyl)thio]acetoamido-7α-methoxy-3-[(1-methyl-1H-tetrazol-5-yl)thio]methyl-3-cephem-4-carboxylic acid L-leucyl-L-lysyloxymethyl ester hydrochloric acid salt]: the “Blood Concentration of Compound (VIII)” value reads like this: (0.5 hr after oral 50 mg/kg) 3140 ng/mL; (1 hr after oral 50 mg/kg) 2370 ng/mL; (2 hrs after oral 50 mg/kg) 1040 ng/mL; (4 hrs after oral 50 mg/kg) 320 ng/mL.
Consider `Cc1nnc(SCC2=C(C(=O)OCOC(=O)[C@H](CCCCN)NC(=O)[C@@H](N)CC(C)C)N3C(=O)C(NC(=O)Cn4cnnn4)C3SC2)s1.Cl` (stereo partly drawn) [Example 35, 7-[1-(1H)-tetrazolylacetamido]-3-[2-(5-methyl-1,3,4-thiazolyl)-thiomethyl]-3-cephem-4-carboxylic acid L-leucyl-L-lysyloxymethyl ester hydrochloric acid salt], for which the “Blood Concentration of Compound (IX)” value reads like this: (0.5 hr after oral 50 mg/kg) 5640 ng/mL; (1 hr after oral 50 mg/kg) 3840 ng/mL; (2 hrs after oral 50 mg/kg) 1870 ng/mL; (4 hrs after oral 50 mg/kg) 740 ng/mL.
Turning to `Cn1nnnc1SCC1=C(C(=O)O)N2C(=O)C(NC(=O)[C@H](OC(=O)[C@@H](N)Cc3ccccc3)c3ccccc3)C2SC1.O=CO` (stereo partly drawn) [compound 1, 7-D-(O-L-phenylalanyl)-mandelamido-3-(1-methyl-1H-tetrazol-5-yl-thiomethyl)-3-cephem-4-carboxylic acid formic acid salt, reference compound], the “Blood concentration of Compound (I)” value is, setting by setting: (0.5 hr after oral 50 mg/kg) 210 ng/mL; (1 hr after oral 50 mg/kg) 230 ng/mL; (2 hrs after oral 50 mg/kg) 80 ng/mL; (4 hrs after oral 50 mg/kg) 20 ng/mL.

For the origin of these results see patent US4465668A, “Method for improving intestinal absorption of cephalosporin derivatives” (Asahi Kasei Kogyo Kabushiki Kaisha, priority 1981, dated 1984).
